Measured values from patent publication US20230172915A1, “DHODH INHIBITOR FOR THE TREATMENT OF COVID-19” (priority 2020, published 2023).
Read-outs that look alike come from different tables or passages of the source.

Columns and labels:
[1] = test system: SARS-CoV-2; test: SARS-CoV-2 infected Vero cells, N-protein antibody and DAPI staining; settings: 30 nM, 300 nM
[2] = test system: DHODH; test: Rhesus monkey single oral dose PD (plasma DHO); type: in vivo, Rhesus monkeys; settings: after single oral 10 mg/kg dose of PTC299, Rhesus monkey
Experimental: FIG. 10 is a plot of PTC299 plasma concentration (µg/mL) vs hours of plasma dihydroorotate (DHO) and PTC299 concentrations after a single dose of PTC299 was administered to a single monkey.
The dosing regimen used in the current study was also supported by experiments performed in Rhesus monkeys. Monkeys were given a single oral 10 mg/kg dose of PTC299. The DHO plasma level increased after dosing, peaked at 24 hours and then decreased, as illustrated in FIG. 10. […] The AUC for PTC299 is consistent with that observed in the healthy volunteer study PTC299-ONC-002-HV indicating this exposure would result in inhibition of DHODH and supports the use of the 200 mg BID dosing regimen in the current study.

[3] = test system: PBMCs plus B cells (BT); test: BioMAP profiling, BT system; type: cell-based; settings: for inhibition at 0.01 µM: 10 nM; for inhibition at 0.1 µM: 100 nM
Experimental: The effect of PTC299 on cytokine production was assessed using BioMAP profiling (BioSeek, now part of Eurofins). The BioMAP system is comprised of complex co-cultures of primary peripheral blood mononuclear cells (PBMCs) with other cell types including B cells, fibroblasts, and endothelial cells allowing for the measurement of physiologically relevant biomarker readouts of the activity of a compound. Using this system, cytokine production was evaluated in the following models of primary cell disease models: • Peripheral blood mononuclear cells (PBMCs) plus venular endothelial cells (sAg) • PBMCs plus B cells (BT) • PBMCs plus fibroblasts (HDFSAg) • TH2 cells plus venular endothelial cells (/TH2).
Abbreviations in Table 4: BCR, B-cell receptor; BT System, co-culture of CD19+ B cells and PBMC that utilizes BCR stimulation and sub-mitogenic TCR stimulation; HDFSAg system, co-culture of human primary dermal fibroblasts and PBMC that is stimulated with sub-mitogenic TCR levels; IL, interleukin; PBMC, Peripheral Blood Mononuclear Cell; SAg system, co-culture of endothelial cells and PBMC stimulated with mitogenic levels of TCR ligands; TCR, T-cell receptor; /TH2 system, co-culture of endothelial cells and Th2 blasts stimulated with TCR ligands and cytokines; Th2, T helper type 2; VEGF, vascular endothelial growth factor.

[4] = read-out: % Inhibition s-IL-17F

Compound: COc1ccc([C@H]2c3[nH]c4ccc(Cl)cc4c3CCN2C(=O)Oc2ccc(Cl)cc2)cc1 [PTC299, 4-chlorophenyl (S)-6-chloro-1-(4-methoxyphenyl)-1,3,4,9-tetrahydro-2H-pyrido[3,4-b]indole-2-carboxylate]
- viability of the cells (DAPI stain) ([1]; 3 µM): not cytotoxic
- viral levels by N-protein antibody staining ([1]; 3 µM versus untreated controls): Increasing the PTC299 concentration led to greater reductions
- AUC of plasma DHO [2]: 71.4 µg·h/mL
- inhibition at 0.01 µM ([3]; read-out: % Inhibition s-IL-6): 53%
- inhibition at 0.01 µM [3, 4]: 58%
- inhibition at 0.01 µM ([3]; read-out: % Inhibition sIL-17A): 68%
- inhibition at 0.01 µM ([3]; read-out: % Inhibition sIgG): 97%
- inhibition at 0.01 µM ([3]; read-out: % Inhibition sTNFa): 49%
- inhibition at 0.1 µM ([3]; read-out: % Inhibition s-IL-6): 72%
- inhibition at 0.1 µM [3, 4]: 74%
- inhibition at 0.1 µM ([3]; read-out: % Inhibition sIL-17A): 83%
- inhibition at 0.1 µM ([3]; read-out: % Inhibition sIgG): 98%
- inhibition at 0.1 µM ([3]; read-out: % Inhibition sTNFa): 66%
- inhibition at 0.1 µM ([3]; B-cell, read-out: % Inhibition B cell proliferation): 31%
